Results published in the supplement of paper PMC10307832.

Key:
Test in all cases: relative viability (nuclei count vs DMSO), 5 days (fraction); higher = more cells survive
RERF-LC-KJ = tested on: RERF-LC-KJ
How it was run: (§1)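 Relative viability was taken as the ratio of nuclei in treated wells to nuclei in vehicle wells. Lung cancer cell lines in 1536-well plates received compounds by pin tool one day after seeding, either one drug alone or a fixed anchor-drug dose plus five library-drug doses (not always all listed) in √10 steps. Nuclei were counted on 4× images after 5 days of treatment, and values are medians of duplicate plates.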

NCI-H596 = tested on: NCI-H596
How it was run: as §1

NCI-H1993 = tested on: NCI-H1993
How it was run: as §1

COR-L 105 = tested on: COR-L 105
How it was run: as §1

NCI-H1651 = tested on: NCI-H1651
How it was run: as §1

NCI-H2087 = tested on: NCI-H2087
How it was run: as §1

HOP-62 = tested on: HOP-62
How it was run: as §1

NCI-H650 = tested on: NCI-H650
How it was run: as §1

NCI-H2170 = tested on: NCI-H2170
How it was run: as §1

LXF-289 = tested on: LXF-289
How it was run: as §1

COR-L23 = tested on: COR-L23
How it was run: as §1

NCI-H2085 = tested on: NCI-H2085
How it was run: as §1

NCI-H2342 = tested on: NCI-H2342
How it was run: as §1

NCI-H1975 = tested on: NCI-H1975
How it was run: as §1

NCI-H2023 = tested on: NCI-H2023
How it was run: as §1

PC-14 = tested on: PC-14
How it was run: as §1

NCI-H3122 = tested on: NCI-H3122
How it was run: as §1

NCI-H647 = tested on: NCI-H647
How it was run: as §1

SK-MES-1 = tested on: SK-MES-1
How it was run: as §1

LCLC-103H = tested on: LCLC-103H
How it was run: as §1

CAL-12T = tested on: CAL-12T
How it was run: as §1

A-427 = tested on: A-427
How it was run: as §1

EPLC-272H = tested on: EPLC-272H
How it was run: as §1

NCI-H1395 = tested on: NCI-H1395
How it was run: as §1

For `CCCCCCCCCCCC1=C(O)C(=O)C=C(O)C1=O` [Embelin] + Cc1cc(Nc2cc(N3CCN(C)CC3)nc(Sc3ccc(NC(=O)C4CC4)cc3)n2)n[nH]1 [Tozasertib] (partner 0.1 µM), the relative viability (RERF-LC-KJ; first compound 0.08 µM) was 0.567, the relative viability (RERF-LC-KJ; first compound 0.8 µM) was 0.532 and the relative viability (RERF-LC-KJ; first compound 2.53 µM) was 0.564. It also gave a relative viability (RERF-LC-KJ; first compound 8 µM) of 0.368, a relative viability (NCI-H596; first compound 0.08 µM) of 0.821 and a relative viability (NCI-H596; first compound 0.8 µM) of 1.06. The relative viability (NCI-H596; first compound 2.53 µM) was 0.952, the relative viability (NCI-H596; first compound 8 µM) was 0.939 and the relative viability (NCI-H1993; first compound 0.08 µM) was 0.523. The relative viability (NCI-H1993; first compound 0.8 µM) was 0.593, the relative viability (NCI-H1993; first compound 2.53 µM) was 0.594 and the relative viability (NCI-H1993; first compound 8 µM) was 0.548. The relative viability (COR-L 105; first compound 0.08 µM) was 0.363, the relative viability (COR-L 105; first compound 0.8 µM) was 0.386 and the relative viability (COR-L 105; first compound 2.53 µM) was 0.367. For the same molecule, the relative viability (COR-L 105; first compound 8 µM) was 0.35, the relative viability (NCI-H1651; first compound 0.08 µM) was 0.677 and the relative viability (NCI-H1651; first compound 0.8 µM) was 0.657. The relative viability (NCI-H1651; first compound 2.53 µM) was 0.723, the relative viability (NCI-H1651; first compound 8 µM) was 0.807 and the relative viability (NCI-H2087; first compound 0.08 µM) was 0.28. For the same molecule, the relative viability (NCI-H2087; first compound 0.8 µM) was 0.308, the relative viability (NCI-H2087; first compound 2.53 µM) was 0.222 and the relative viability (NCI-H2087; first compound 8 µM) was 0.217. The relative viability (HOP-62; first compound 0.08 µM) was 0.313, the relative viability (HOP-62; first compound 0.8 µM) was 0.456 and the relative viability (HOP-62; first compound 2.53 µM) was 0.377. It also gave a relative viability (HOP-62; first compound 8 µM) of 0.387, a relative viability (NCI-H650; first compound 0.08 µM) of 0.823 and a relative viability (NCI-H650; first compound 0.8 µM) of 1.04. It also gave a relative viability (NCI-H650; first compound 2.53 µM) of 0.869, a relative viability (NCI-H650; first compound 8 µM) of 0.724 and a relative viability (NCI-H2170; first compound 0.08 µM) of 0.798. The relative viability (NCI-H2170; first compound 0.8 µM) was 0.761, the relative viability (NCI-H2170; first compound 2.53 µM) was 0.818 and the relative viability (NCI-H2170; first compound 8 µM) was 0.731. The relative viability (LXF-289; first compound 0.08 µM) was 0.192, the relative viability (LXF-289; first compound 0.8 µM) was 0.187 and the relative viability (LXF-289; first compound 2.53 µM) was 0.169. It also gave a relative viability (LXF-289; first compound 8 µM) of 0.271, a relative viability (COR-L23; first compound 0.08 µM) of 0.191 and a relative viability (COR-L23; first compound 0.8 µM) of 0.253. The relative viability (COR-L23; first compound 2.53 µM) was 0.233, the relative viability (COR-L23; first compound 8 µM) was 0.19 and the relative viability (NCI-H2085; first compound 0.08 µM) was 0.784. It also gave a relative viability (NCI-H2085; first compound 0.8 µM) of 0.939, a relative viability (NCI-H2085; first compound 2.53 µM) of 0.884 and a relative viability (NCI-H2085; first compound 8 µM) of 0.859. It also gave a relative viability (NCI-H2342; first compound 0.08 µM) of 0.6, a relative viability (NCI-H2342; first compound 0.8 µM) of 0.641 and a relative viability (NCI-H2342; first compound 2.53 µM) of 0.527. For the same molecule, the relative viability (NCI-H2342; first compound 8 µM) was 0.479, the relative viability (NCI-H1975; first compound 0.08 µM) was 0.901 and the relative viability (NCI-H1975; first compound 0.8 µM) was 0.745. The relative viability (NCI-H1975; first compound 2.53 µM) was 0.683, the relative viability (NCI-H1975; first compound 8 µM) was 0.839 and the relative viability (NCI-H2023; first compound 0.08 µM) was 0.412. It also gave a relative viability (NCI-H2023; first compound 0.8 µM) of 0.406, a relative viability (NCI-H2023; first compound 2.53 µM) of 0.369 and a relative viability (NCI-H2023; first compound 8 µM) of 0.302. For the same molecule, the relative viability (PC-14; first compound 0.08 µM) was 0.612, the relative viability (PC-14; first compound 0.8 µM) was 0.718 and the relative viability (PC-14; first compound 2.53 µM) was 0.74. It also gave a relative viability (PC-14; first compound 8 µM) of 0.644, a relative viability (NCI-H3122; first compound 0.08 µM) of 0.356 and a relative viability (NCI-H3122; first compound 0.8 µM) of 0.457. It also gave a relative viability (NCI-H3122; first compound 2.53 µM) of 0.424, a relative viability (NCI-H3122; first compound 8 µM) of 0.417 and a relative viability (NCI-H647; first compound 0.08 µM) of 0.361. It also gave a relative viability (NCI-H647; first compound 0.8 µM) of 0.26, a relative viability (NCI-H647; first compound 2.53 µM) of 0.288 and a relative viability (NCI-H647; first compound 8 µM) of 0.245. The relative viability (SK-MES-1; first compound 0.08 µM) was 0.959, the relative viability (SK-MES-1; first compound 0.8 µM) was 0.989 and the relative viability (SK-MES-1; first compound 2.53 µM) was 0.998. The relative viability (SK-MES-1; first compound 8 µM) was 0.621, the relative viability (LCLC-103H; first compound 0.08 µM) was 0.549 and the relative viability (LCLC-103H; first compound 0.8 µM) was 0.557. The relative viability (LCLC-103H; first compound 2.53 µM) was 0.508, the relative viability (LCLC-103H; first compound 8 µM) was 0.501 and the relative viability (CAL-12T; first compound 0.08 µM) was 0.315. The relative viability (CAL-12T; first compound 0.8 µM) was 0.406, the relative viability (CAL-12T; first compound 2.53 µM) was 0.372 and the relative viability (CAL-12T; first compound 8 µM) was 0.358. For the same molecule, the relative viability (A-427; first compound 0.08 µM) was 0.229, the relative viability (A-427; first compound 0.8 µM) was 0.196 and the relative viability (A-427; first compound 2.53 µM) was 0.188. For the same molecule, the relative viability (A-427; first compound 8 µM) was 0.243, the relative viability (EPLC-272H; first compound 0.08 µM) was 0.213 and the relative viability (EPLC-272H; first compound 0.8 µM) was 0.182. It also gave a relative viability (EPLC-272H; first compound 2.53 µM) of 0.277, a relative viability (EPLC-272H; first compound 8 µM) of 0.22 and a relative viability (NCI-H1395; first compound 0.08 µM) of 0.766. The relative viability (NCI-H1395; first compound 0.8 µM) was 0.725, the relative viability (NCI-H1395; first compound 2.53 µM) was 0.832 and the relative viability (NCI-H1395; first compound 8 µM) was 0.722.
